Results taken from article PMC2248166, “Quantitative peptide binding motifs for 19 human and mouse MHC class I molecules derived using positional scanning combinatorial peptide libraries” (Immunome Research, 2008).
Where a SMILES comes first, the peptide text is derived from it.

Assays:
Assay in all cases: biochemical
Format in all cases: binding
HLA B*1501 = HLA B*1501 (Homo sapiens, UniProt P01889, A329T/A93T/A95T/C349S/D201E/D98Y/E187L/E204Q/E69M/E70A/K202T/N87E/Q94N/R155S/R180W/S121R/S35A/S48A/V306I/V36M/Y140S/Y91S)
HLA B*0801 = HLA B*0801 (Homo sapiens, UniProt P01889, A93T/A95T/D138N/E176V/E187T/K202T/Q94N/R180D/S35A/V36M/Y33D/Y91F)
HLA A*3001 = HLA A*3001 (Homo sapiens, UniProt P04439, D140H/D185E/E176W/F33S/G80R/H175R/K168Q/R138E/R41S)
HLA B*1503 = HLA B*1503 (Homo sapiens, UniProt P01889, A329T/A93T/A95T/C349S/D201E/D98Y/E187L/E204Q/K202T/N87E/Q94N/R155S/R180L/S121R/S35A/V306I/V36M/Y140S/Y91S)

HLA A*3001, sequence (P04439 25-365 limits assumed, stated change not applied): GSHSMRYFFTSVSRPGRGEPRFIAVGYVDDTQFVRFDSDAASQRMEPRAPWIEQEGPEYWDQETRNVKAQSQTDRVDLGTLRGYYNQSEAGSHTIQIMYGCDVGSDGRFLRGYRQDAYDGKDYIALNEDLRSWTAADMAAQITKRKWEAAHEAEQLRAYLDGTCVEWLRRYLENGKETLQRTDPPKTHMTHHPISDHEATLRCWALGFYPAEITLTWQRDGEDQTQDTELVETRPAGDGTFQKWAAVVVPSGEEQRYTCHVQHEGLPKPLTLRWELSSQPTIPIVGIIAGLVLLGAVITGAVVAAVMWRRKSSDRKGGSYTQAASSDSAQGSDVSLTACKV

| Structure (SMILES) | IC50 (HLA B*1501) | IC50 (HLA B*0801) | IC50 (HLA A*3001) | IC50 (HLA B*1503) |
| --- | --- | --- | --- | --- |
| CC(C)[C@H](NC(=O)[C@H](C)NC(=O)[C@H](CO)NC(=O)[C@H](Cc1ccc(O)cc1)NC(=O)[C@H](CCCNC(=N)N)NC(=O)CNC(=O)[C@H](Cc1ccc(O)cc1)NC(=O)[C@@H](NC(=O)[C@@H](N)CCCCN)C(C)C)C(=O)O [3102.0117] (H-KVYGRYSAV-OH) | 95 nM | 4.2 nM | – | – |
| CC(C)C[C@H](NC(=O)[C@H](C)NC(=O)[C@H](CCCNC(=N)N)NC(=O)[C@H](Cc1c[nH]cn1)NC(=O)[C@H](CC(C)C)NC(=O)[C@H](Cc1c[nH]c2ccccc12)NC(=O)[C@H](CCCNC(=N)N)NC(=O)[C@@H](NC(=O)[C@@H](N)Cc1ccccc1)C(C)C)C(=O)O [3102.0526] (H-FVRWLHRAL-OH) | 16 nM | 1 nM | – | – |
| CC[C@H](C)[C@H](NC(=O)[C@H](CO)NC(=O)[C@H](CCCNC(=N)N)NC(=O)[C@H](CO)NC(=O)[C@H](CCSC)NC(=O)[C@H](CO)NC(=O)[C@H](CCCNC(=N)N)NC(=O)[C@@H](NC(=O)[C@@H](N)CO)[C@@H](C)CC)C(=O)O [3102.0527] (H-SIRSMSRSI-OH) | 363 nM | 77 nM | – | – |
| CC[C@H](C)[C@H](NC(=O)[C@H](CCCCN)NC(=O)[C@H](CC(N)=O)NC(=O)[C@H](CCCCN)NC(=O)[C@@H](NC(=O)[C@@H](N)Cc1ccccc1)[C@@H](C)CC)C(=O)N[C@@H](Cc1c[nH]cn1)C(=O)N[C@@H](CC(C)C)C(=O)N[C@@H](CC(C)C)C(=O)O [3102.0551] (H-FIKNKIHLL-OH) | 98 nM | 0.82 nM | – | – |
| CSCC[C@H](N)C(=O)N[C@@H](Cc1ccccc1)C(=O)N[C@@H](CCCNC(=N)N)C(=O)N[C@@H](CCCCN)C(=O)N[C@@H](CCCCN)C(=O)N[C@@H](CCCNC(=N)N)C(=O)N[C@@H](CC(C)C)C(=O)N[C@@H](Cc1ccccc1)C(=O)N[C@@H](CC(C)C)C(=O)O [3102.0580] (H-MFRKKRLFL-OH) | – | 1.1 nM | 10 nM | – |
| CC(C)[C@H](NC(=O)[C@H](Cc1ccccc1)NC(=O)[C@H](CC(=O)O)NC(=O)[C@H](CC(N)=O)NC(=O)[C@H](CCCCN)NC(=O)[C@@H]1CCCN1C(=O)[C@@H](N)Cc1ccccc1)C(=O)N[C@@H](CO)C(=O)N[C@@H](Cc1ccccc1)C(=O)O [3102.0637] (H-FPKNDFVSF-OH) | 10 nM | 16 nM | – | 4.2 nM |
| CC[C@H](C)[C@H](NC(=O)[C@@H](N)CC(C)C)C(=O)N[C@@H](CCCNC(=N)N)C(=O)N[C@@H](CC(N)=O)C(=O)N[C@@H](CCCCN)C(=O)N[C@@H](CCCNC(=N)N)C(=O)N[C@@H](CC(C)C)C(=O)N[C@@H](CO)C(=O)N[C@@H](CC(C)C)C(=O)O [3102.0638] (H-LIRNKRLSL-OH) | 455 nM | 0.78 nM | – | – |
| CC[C@H](C)[C@H](NC(=O)[C@@H](N)Cc1ccccc1)C(=O)N[C@@H](Cc1ccccc1)C(=O)N[C@@H](CC(C)C)C(=O)N[C@@H](CCCCN)C(=O)N[C@@H](CCCCN)C(=O)N[C@@H](CC(N)=O)C(=O)N[C@@H](CCC(=O)O)C(=O)N[C@@H](CC(C)C)C(=O)O [3102.0673] (H-FIFLKKNEL-OH) | – | 97 nM | 44 nM | – |
| CC[C@H](C)[C@H](NC(=O)[C@@H](N)Cc1ccccc1)C(=O)N[C@@H](CCCNC(=N)N)C(=O)N[C@@H](Cc1ccc(O)cc1)C(=O)N[C@@H](CCCNC(=N)N)C(=O)N[C@@H](CCSC)C(=O)N[C@@H](Cc1c[nH]cn1)C(=O)N1CCC[C@H]1C(=O)N[C@@H](CCSC)C(=O)O [3102.0768] (H-FIRYRMHPM-OH) | 1.2 nM | 0.21 nM | – | 22 nM |
| CC[C@H](C)[C@H](NC(=O)[C@@H](N)CC(C)C)C(=O)NCC(=O)N[C@@H](C)C(=O)N[C@@H](CCCNC(=N)N)C(=O)N[C@@H](CCCNC(=N)N)C(=O)N[C@H](C(=O)N[C@@H](CO)C(=O)N[C@@H](Cc1ccccc1)C(=O)O)[C@@H](C)O [3102.0774] (H-LIGARRTSF-OH) | 40 nM | 1.5 nM | – | – |
| CC[C@H](C)[C@H](NC(=O)[C@H](CC(C)C)NC(=O)[C@@H](N)CC(N)=O)C(=O)N[C@H](C(=O)N[C@@H](CC(C)C)C(=O)N[C@@H](C)C(=O)N[C@H](C(=O)N[C@@H](CO)C(=O)N[C@@H](Cc1ccccc1)C(=O)O)C(C)C)[C@@H](C)O [3102.0798] (H-NLITLAVSF-OH) | 81 nM | 328 nM | – | 15 nM |
| CC(C)C[C@H](NC(=O)[C@H](CCC(=O)O)NC(=O)[C@H](CC(N)=O)NC(=O)[C@H](CCCNC(=N)N)NC(=O)[C@H](CC(=O)O)NC(=O)[C@H](CCCCN)NC(=O)[C@H](CC(C)C)NC(=O)[C@@H](N)CC(C)C)C(=O)N[C@@H](Cc1ccccc1)C(=O)O [3102.0842] (H-LLKDRNELF-OH) | 1.8 nM | 41 nM | – | 16 nM |
| CC[C@H](C)[C@H](NC(=O)[C@H](C)N)C(=O)N[C@@H](CC(N)=O)C(=O)N[C@@H](CC(N)=O)C(=O)N[C@@H](CCCNC(=N)N)C(=O)N[C@H](C(=O)N[C@@H](CS)C(=O)N[C@H](C(=O)N[C@@H](CCSC)C(=O)O)C(C)C)[C@@H](C)CC [3102.0865] (H-AINNRICVM-OH) | 51 nM | 424 nM | – | – |
| CC(C)C[C@H](NC(=O)[C@@H](N)CC(C)C)C(=O)N[C@@H](CCCCN)C(=O)N1CCC[C@H]1C(=O)N[C@@H](CCCNC(=N)N)C(=O)N[C@@H](CS)C(=O)N[C@@H](CC(N)=O)C(=O)N1CCC[C@H]1C(=O)N[C@@H](C)C(=O)O [3102.0901] (H-LLKPRCNPA-OH) | 21 nM | 1.2 nM | – | – |
| CSCC[C@H](NC(=O)[C@@H](N)CO)C(=O)N[C@@H](Cc1c[nH]cn1)C(=O)N[C@@H](Cc1ccccc1)C(=O)N[C@@H](Cc1ccc(O)cc1)C(=O)NCC(=O)N[C@@H](Cc1c[nH]c2ccccc12)C(=O)N[C@@H](CO)C(=O)N[C@@H](CC(C)C)C(=O)O [3102.0946] (H-SMHFYGWSL-OH) | 63 nM | 2.9 nM | – | – |
| CC[C@H](C)[C@H](NC(=O)[C@H](CS)NC(=O)[C@H](CS)NC(=O)[C@H](Cc1c[nH]cn1)NC(=O)[C@H](CCCNC(=N)N)NC(=O)[C@H](CO)NC(=O)[C@@H](NC(=O)[C@H](CCSC)NC(=O)[C@@H](N)CO)[C@@H](C)CC)C(=O)O [3102.0973] (H-SMISRHCCI-OH) | 81 nM | 1.3 nM | – | – |
| CC[C@H](C)[C@H](NC(=O)[C@@H]1CCCN1C(=O)[C@H](CC(C)C)NC(=O)[C@H](Cc1ccccc1)NC(=O)[C@H](CO)NC(=O)[C@H](CCSC)NC(=O)[C@H](CCCCN)NC(=O)[C@H](CO)NC(=O)[C@@H](N)CCC(=O)O)C(=O)O [3102.0979] (H-ESKMSFLPI-OH) | 358 nM | 1.1 nM | – | – |
| CC[C@H](C)[C@H](NC(=O)[C@H](CCCCN)NC(=O)[C@@H]1CCCN1C(=O)[C@H](CCCNC(=N)N)NC(=O)[C@@H](NC(=O)[C@@H](N)CC(C)C)[C@@H](C)CC)C(=O)N[C@@H](CC(C)C)C(=O)N[C@@H](CO)C(=O)N[C@@H](CCSC)C(=O)O [3102.0983] (H-LIRPKILSM-OH) | 10 nM | 0.55 nM | – | – |
| CC[C@H](C)[C@H](NC(=O)[C@H](Cc1ccccc1)NC(=O)[C@H](CCSC)NC(=O)[C@H](Cc1ccccc1)NC(=O)[C@H](CCCCN)NC(=O)[C@H](CC(N)=O)NC(=O)[C@H](CCCNC(=N)N)NC(=O)[C@@H](NC(=O)[C@@H](N)CCCNC(=N)N)[C@@H](C)CC)C(=O)O [3102.0998] (H-RIRNKFMFI-OH) | – | 1.6 nM | 0.069 nM | – |
| CC[C@H](C)[C@H](NC(=O)[C@H](CO)NC(=O)[C@@H](N)CCCNC(=N)N)C(=O)N[C@@H](CCCNC(=N)N)C(=O)N[C@@H](CCCCN)C(=O)N[C@@H](Cc1ccccc1)C(=O)N[C@@H](CC(N)=O)C(=O)N[C@H](C(=O)N[C@@H](CCSC)C(=O)O)[C@@H](C)O [3102.1003] (H-RSIRKFNTM-OH) | 4.4 nM | 17 nM | – | – |
| CC[C@H](C)[C@H](NC(=O)[C@@H](NC(=O)[C@H](CC(C)C)NC(=O)CNC(=O)[C@H](C)NC(=O)[C@H](Cc1ccc(O)cc1)NC(=O)[C@H](CCCCN)NC(=O)[C@H](CC(C)C)NC(=O)[C@@H](N)CC(C)C)[C@@H](C)O)C(=O)O [3102.1023] (H-LLKYAGLTI-OH) | 4.5 nM | 105 nM | – | – |
| CC(C)[C@H](NC(=O)[C@H](CCCNC(=N)N)NC(=O)[C@@H](N)Cc1ccccc1)C(=O)N[C@H](C(=O)N[C@@H](CCCCN)C(=O)N1CCC[C@H]1C(=O)N[C@@H](CC(N)=O)C(=O)N[C@@H](CO)C(=O)N[C@@H](Cc1ccccc1)C(=O)O)C(C)C [3102.1127] (H-FRVVKPNSF-OH) | 108 nM | 91 nM | – | – |
| N=C(N)NCCC[C@H](NC(=O)[C@H](Cc1ccc(O)cc1)NC(=O)[C@H](CCCNC(=N)N)NC(=O)[C@H](CCCNC(=N)N)NC(=O)[C@H](CO)NC(=O)[C@@H](N)CO)C(=O)N[C@@H](CS)C(=O)N[C@@H](CO)C(=O)N[C@@H](Cc1ccccc1)C(=O)O [3102.1158] (H-SSRRYRCSF-OH) | – | 12 nM | – | – |
| CC[C@H](C)[C@H](N)C(=O)N[C@@H](CC(C)C)C(=O)N[C@@H](Cc1c[nH]cn1)C(=O)N[C@@H](Cc1c[nH]cn1)C(=O)N[C@@H](Cc1c[nH]cn1)C(=O)N[C@@H](CCCNC(=N)N)C(=O)N[C@@H](CC(N)=O)C(=O)N[C@H](C(=O)N[C@@H](Cc1ccccc1)C(=O)O)C(C)C [3102.1250] (H-ILHHHRNVF-OH) | – | 13 nM | – | 1.3 nM |
| CSCC[C@H](NC(=O)[C@H](CC(=O)O)NC(=O)[C@@H](NC(=O)[C@H](Cc1ccccc1)NC(=O)[C@H](Cc1c[nH]cn1)NC(=O)[C@H](CCSC)NC(=O)[C@H](CO)NC(=O)[C@H](CCC(N)=O)NC(=O)[C@@H](N)Cc1ccccc1)[C@@H](C)O)C(=O)O [3102.1283] (H-FQSMHFTDM-OH) | – | 84 nM | – | 5.1 nM |
